Data from PubChem BioAssay (NCI).
Several values for one entry are separate records, joined by “and”; a condition that tells them apart may be missing. Identical values can stand only once.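 96-well plates; 48 h exposure; 5 concentrations. Endpoints by linear interpolation between flanking doses. Not reached: highest tested concentration assigned. The concentration for 50% growth inhibition is given as GI50. The concentration for full growth arrest is given as TGI.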

Experiments:
Experiment in all cases: NCI anticancer screen, dose series, 48 h
CAKI-1 renal = tested on: CAKI-1 renal
KM12 colon = tested on: KM12 colon
ACHN renal = tested on: ACHN renal
UACC-62 melanoma = tested on: UACC-62 melanoma
NCI-H460 lung = tested on: NCI-H460 lung
SW-620 colon = tested on: SW-620 colon
MALME-3M melanoma = tested on: MALME-3M melanoma
RPMI-8226 leukemia = tested on: RPMI-8226 leukemia
HCT-15 colon = tested on: HCT-15 colon
OVCAR-3 ovarian = tested on: OVCAR-3 ovarian

Structure (SMILES)	GI50 (CAKI-1 renal)	TGI (CAKI-1 renal)	GI50 (KM12 colon)	TGI (KM12 colon)	GI50 (ACHN renal)	TGI (ACHN renal)	GI50 (UACC-62 melanoma)	TGI (UACC-62 melanoma)	GI50 (NCI-H460 lung)	TGI (NCI-H460 lung)	GI50 (SW-620 colon)	TGI (SW-620 colon)	GI50 (MALME-3M melanoma)	TGI (MALME-3M melanoma)	GI50 (RPMI-8226 leukemia)	TGI (RPMI-8226 leukemia)	GI50 (HCT-15 colon)	TGI (HCT-15 colon)	GI50 (OVCAR-3 ovarian)	TGI (OVCAR-3 ovarian)
Brc1ccc2c(c1)-c1ccccc1C1=NCCN12	1.52 µM	7.92 µM	1.02 µM	11.3 µM	0.519 µM	12.4 µM	1.69 µM	3.24 µM	0.399 µM	2.71 µM	0.44 µM	10.4 µM	1.35 µM	2.97 µM	1.71 µM	4.95 µM	0.68 µM	10.8 µM	2.08 µM	8.04 µM
ClCc1ccc(Cn2cnc3nc(Cl)nc(Cl)c32)cc1	1.5 µM	2.86 µM	0.677 µM	1.48 µM	0.523 µM	0.953 µM	0.974 µM	2.54 µM	3.65 µM	9.19 µM	1.47 µM	3.28 µM	1.6 µM	3.24 µM	1.68 µM	28.3 µM	0.481 µM	1.03 µM	0.687 µM	1.45 µM
Oc1ccc(/C=N/Nc2nnc(N/N=C/c3ccc(O)cc3O)c3ccccc23)c(O)c1	0.334 µM	0.671 µM	0.375 µM	0.8 µM and 1.54 µM	0.358 µM	0.422 µM and 3.94 µM	0.318 µM	0.602 µM and 1.58 µM	0.414 µM	1.76 µM	–	7.71 µM	0.633 µM	4.28 µM	0.345 µM	0.533 µM and 1.77 µM	0.332 µM	–	0.385 µM	0.489 µM and 1.9 µM
OCCn1c(-c2ccncc2)c(-c2ccc(F)cc2)c2ncccc21	> 25 µM	> 25 µM	> 25 µM	> 25 µM	24.8 µM	> 25 µM	> 25 µM	> 25 µM	> 25 µM	> 25 µM	> 25 µM	> 25 µM	> 25 µM	> 25 µM	> 25 µM	> 25 µM	> 25 µM	> 25 µM	> 25 µM	> 25 µM
CC(=O)OC1CCC2(C)C(=CCC3C4CC(CN5CC5)C(=O)C4(C)CCC32)C1 (configuration not stated)	2.21 µM	6.02 µM	3.11 µM	11 µM	4.17 µM	15.7 µM	11.7 µM	24.6 µM	12.2 µM	29.5 µM	3.17 µM	13.3 µM	2.21 µM	5.56 µM	1 µM	6.28 µM	2.27 µM	5.62 µM	4.63 µM	14.8 µM
COc1ccc(-c2ccc(/C=N/n3c(COc4ccc(Cl)c(C)c4)nn(CN4CCOCC4)c3=S)o2)c([N+](=O)[O-])c1	23.6 µM	57.1 µM	29.1 µM	> 100 µM	39.1 µM	> 100 µM	30.8 µM	> 100 µM	18.5 µM	55.8 µM	19.9 µM	48.9 µM	17.9 µM	43.1 µM	12.5 µM	34.9 µM	30.7 µM	> 100 µM	17.3 µM	44.8 µM
CC(C)C12CCC3(CCC4C(C)(C(=O)O)CCCC4(C)C3C1)C(CN)C2 (configuration not stated)	–	> 100 µM	–	> 100 µM	–	> 100 µM	–	> 100 µM	–	52.3 µM	–	> 100 µM	–	> 100 µM	–	42 µM	–	> 100 µM	–	> 100 µM
COc1cccc(OC)c1/C=N\N1C(=O)c2ccccc2C1=O	–	> 100 µM	–	> 100 µM	–	> 100 µM	–	> 100 µM	–	> 100 µM	–	> 100 µM	–	> 100 µM	–	> 100 µM	–	> 100 µM	–	44.1 µM
O=C(Nc1cccc(C(F)(F)F)c1)Nc1ccc(OCc2nnc(-c3ccccc3)o2)c(F)c1	6.68 µM	37.4 µM	2.43 µM	12.8 µM	2.92 µM	12.3 µM	4.1 µM	24.6 µM	3.61 µM	15.3 µM	4.08 µM	> 100 µM	3.35 µM	–	1.67 µM	6.2 µM	2.92 µM	54.3 µM	4.23 µM	17 µM
O=[N+]([O-])c1cccc(C2=NOC3CCCC23)c1 (configuration not stated)	–	> 100 µM	–	> 100 µM	–	> 100 µM	–	> 100 µM	–	> 100 µM	–	> 100 µM	–	> 100 µM	–	> 100 µM	–	> 100 µM	–	> 100 µM
O=C1C(=O)c2c(ccc3ccccc23)-c2ccccc21	2.7 µM	> 100 µM	1.6 µM	2.99 µM	2.74 µM	> 100 µM	1.57 µM	3.38 µM	1.6 µM	3.08 µM	1.96 µM	4.23 µM	1.63 µM	3.44 µM	0.752 µM	5.26 µM	1.02 µM	6.43 µM	0.25 µM	0.713 µM
O=C1COc2c(CCNCCN(C(=O)CCNCCc3ccc(Cl)c(Cl)c3)C3CCCCC3)ccc(O)c2N1	> 45.9 µM	> 74.9 µM	19 µM	35.5 µM	15.2 µM	29.1 µM	15.5 µM	30.4 µM	16.5 µM	31.1 µM	16 µM	31 µM	21.9 µM	39.6 µM	14.5 µM	33.8 µM	15.7 µM	31.2 µM	16.8 µM	32.1 µM
Cc1c(-c2ccc(N3CCc4cccc(C(=O)Nc5nc6ccccc6s5)c4C3)nc2C(=O)O)cnn1CC12CC3CC(CC(C3)C1)C2	8.35 µM	23.4 µM	4.97 µM	20.6 µM	4.83 µM	18.5 µM	3.65 µM	15.4 µM	8.22 µM	24.6 µM	8.54 µM	37.1 µM	14.3 µM	33.7 µM	< 0.0177 µM	2.86 µM	6.08 µM	19.9 µM	6.19 µM	20.9 µM
